Measurements taken from ChEMBL document CHEMBL6134853, “Design, Synthesis, and Biological Evaluation of Pyrrolo[1,2-a]quinoxalin-4(5H)-one Derivatives as Potent and Orally Available Noncovalent Bruton's Tyrosine Kinase (BTK) Inhibitors” (J Med Chem, 2025).
Calls of active or inactive are those of the source. The calls are words filed in the database; no cut-off is given here.

How the values were obtained:
U-937 [1] = experiment: Induction of apoptosis in human U-937 cells incubated for 2 days by Annexin V/PI staining based flow cytometry analysis; type: functional, cell-based; conditions: dose 1-10 µM, time 2.0 day
[2] = target: T1, Serine/threonine-protein kinase RIO3 (Homo sapiens) (UniProt O14730); experiment: Inhibition of RIOK3 (unknown origin) at 100 nM relative to control
T1 sequence (whole entry): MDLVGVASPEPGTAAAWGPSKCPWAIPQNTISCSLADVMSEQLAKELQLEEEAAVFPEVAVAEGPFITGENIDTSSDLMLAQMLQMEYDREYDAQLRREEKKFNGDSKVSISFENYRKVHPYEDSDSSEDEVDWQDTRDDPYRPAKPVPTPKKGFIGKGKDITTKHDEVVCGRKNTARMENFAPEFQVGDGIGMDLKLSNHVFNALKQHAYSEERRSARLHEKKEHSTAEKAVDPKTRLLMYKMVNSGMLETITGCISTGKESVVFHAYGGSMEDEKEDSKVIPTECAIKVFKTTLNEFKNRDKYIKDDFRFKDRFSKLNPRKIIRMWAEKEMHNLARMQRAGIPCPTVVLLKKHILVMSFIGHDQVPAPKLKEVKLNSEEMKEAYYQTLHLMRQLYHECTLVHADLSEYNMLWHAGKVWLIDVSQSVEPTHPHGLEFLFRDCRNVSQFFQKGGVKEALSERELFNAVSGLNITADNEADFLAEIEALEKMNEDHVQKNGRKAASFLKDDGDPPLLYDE

[3] = AUC (0 to 5 hrs) in male Sprague-Dawley rat at 10 mg/kg, po measured up to 5 hrs by LC-MS/MS analysis; type: ADME, organism-based; conditions: in vivo
[4] = MRT (0 to 5 hrs) in male Sprague-Dawley rat at 10 mg/kg, po measured up to 5 hrs by LC-MS/MS analysis; type: ADME, organism-based; conditions: in vivo
U-937 [5] = experiment: Antitumor activity against human U-937 cells xenografted in BALB/c mouse assessed as tumor growth inhibition at 50 mg/kg, po administered once a day for 14 days; type: functional; conditions: U-937, 336 h, time 14 day, read-out: TGI
[6] = target: T2, Tyrosine-protein kinase BTK (Homo sapiens, UniProt Q06187); experiment: Inhibition of BTK (unknown origin) by HTRF analysis
[7] = Toxicity in BALB/c mouse xenografted with human U-937 cells assessed as change in body weight at 50 to 100 mg/kg, po administered once a day for 14 days; type: organism-based; conditions: in vivo, 336 h, dose 50-100 mg/kg, time 14 day
[8] = target: T2, Tyrosine-protein kinase BTK; experiment: Inhibition of BTK (unknown origin) at 100 nM relative to control
[9] = Toxicity in BALB/c mouse xenografted with human U-937 cells assessed as inflammatory infiltration in spleen at 50 to 100 mg/kg, po administered once a day for 14 days by H and E staining based analysis; type: organism-based; conditions: in vivo, 336 h, dose 50-100 mg/kg, time 14 day
[10] = Toxicity in BALB/c mouse xenografted with human U-937 cells assessed as parenchymal injury in spleen at 50 to 100 mg/kg, po administered once a day for 14 days by H and E staining based analysis; type: organism-based; conditions: in vivo, 336 h, dose 50-100 mg/kg, time 14 day
[11] = target: T2, Tyrosine-protein kinase BTK; experiment: Inhibition of BTK phosphorylation at Y223 residue in anti-IgM induced human U-937 cells preincubated with compound for 4 hrs followed by anti-IgM induction and measured after 15 mins by Western blot analysis; type: cell-based; conditions: dose <= 1.0 µM, time 255.0 min
[12] = target: T3, Tyrosine-protein kinase Tec (Homo sapiens) (UniProt P42680); experiment: Inhibition of TEC (unknown origin) at 100 nM relative to control
T3 sequence (whole entry): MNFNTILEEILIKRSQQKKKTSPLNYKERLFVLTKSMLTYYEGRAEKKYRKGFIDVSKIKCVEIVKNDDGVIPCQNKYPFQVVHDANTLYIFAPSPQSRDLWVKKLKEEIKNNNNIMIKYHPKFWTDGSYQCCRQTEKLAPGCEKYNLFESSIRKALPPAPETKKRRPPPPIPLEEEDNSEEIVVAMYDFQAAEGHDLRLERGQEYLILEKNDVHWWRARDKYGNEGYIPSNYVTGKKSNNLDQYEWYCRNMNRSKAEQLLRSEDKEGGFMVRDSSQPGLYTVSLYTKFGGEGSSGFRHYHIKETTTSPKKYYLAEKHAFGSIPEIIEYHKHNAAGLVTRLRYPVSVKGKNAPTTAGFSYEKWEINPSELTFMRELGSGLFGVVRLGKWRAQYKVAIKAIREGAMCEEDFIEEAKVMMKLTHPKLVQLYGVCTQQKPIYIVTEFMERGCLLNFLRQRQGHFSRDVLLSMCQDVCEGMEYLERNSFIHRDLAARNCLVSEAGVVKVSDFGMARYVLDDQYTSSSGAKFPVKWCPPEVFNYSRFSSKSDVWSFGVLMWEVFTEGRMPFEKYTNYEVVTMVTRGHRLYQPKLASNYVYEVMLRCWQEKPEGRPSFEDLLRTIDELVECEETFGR

U-937 [13] = experiment: Induction of cell cycle arrest in human U-937 cells assessed as accumulation of cells at S-phase incubated for 2 days by PI staining based flow cytometry analysis; type: functional; conditions: dose 1-10 µM, time 2.0 day
[14] = target: T2, Tyrosine-protein kinase BTK; experiment: Inhibition of BTK phosphorylation at Y223 residue in anti-IgM induced human Ramos cells preincubated with compound for 4 hrs followed by anti-IgM induction and measured after 15 mins by Western blot analysis; type: cell-based; conditions: dose <= 1.0 µM, time 255.0 min
U-937 [15] = experiment: Antitumor activity against human U-937 cells xenografted in po dosed BALB/c mouse assessed as tumor growth inhibition administered once a day for 14 days; type: functional, organism-based; conditions: dose 50-100 mg/kg, time 14.0 day
U-937 [16] = experiment: Antiproliferative activity against human U-937 cells expressing BTK assessed as inhibition of cell proliferation incubated for 48 hrs by CCK-8 assay; type: functional, cell-based; conditions: U-937, 48 h
[17] = Toxicity in BALB/c mouse xenografted with human U-937 cells assessed as inflammatory infiltration in kidney at 50 to 100 mg/kg, po administered once a day for 14 days by H and E staining based analysis; type: organism-based; conditions: in vivo, 336 h, dose 50-100 mg/kg, time 14 day
[18] = Toxicity in BALB/c mouse xenografted with human U-937 cells assessed as parenchymal injury in lung at 50 to 100 mg/kg, po administered once a day for 14 days by H and E staining based analysis; type: organism-based; conditions: in vivo, 336 h, dose 50-100 mg/kg, time 14 day
[19] = Toxicity in BALB/c mouse xenografted with human U-937 cells assessed as inflammatory infiltration in lung at 50 to 100 mg/kg, po administered once a day for 14 days by H and E staining based analysis; type: organism-based; conditions: in vivo, 336 h, dose 50-100 mg/kg, time 14 day
[20] = Tmax in male Sprague-Dawley rat at 10 mg/kg, po measured up to 5 hrs by LC-MS/MS analysis; type: ADME, organism-based; conditions: in vivo
[21] = Cmax in male Sprague-Dawley rat at 10 mg/kg, po measured up to 5 hrs by LC-MS/MS analysis; type: ADME, organism-based; conditions: in vivo
[22] = Toxicity in BALB/c mouse xenografted with human U-937 cells assessed as parenchymal injury in liver at 50 to 100 mg/kg, po administered once a day for 14 days by H and E staining based analysis; type: organism-based; conditions: in vivo, 336 h, dose 50-100 mg/kg, time 14 day

T2 sequence (Q06187 whole entry): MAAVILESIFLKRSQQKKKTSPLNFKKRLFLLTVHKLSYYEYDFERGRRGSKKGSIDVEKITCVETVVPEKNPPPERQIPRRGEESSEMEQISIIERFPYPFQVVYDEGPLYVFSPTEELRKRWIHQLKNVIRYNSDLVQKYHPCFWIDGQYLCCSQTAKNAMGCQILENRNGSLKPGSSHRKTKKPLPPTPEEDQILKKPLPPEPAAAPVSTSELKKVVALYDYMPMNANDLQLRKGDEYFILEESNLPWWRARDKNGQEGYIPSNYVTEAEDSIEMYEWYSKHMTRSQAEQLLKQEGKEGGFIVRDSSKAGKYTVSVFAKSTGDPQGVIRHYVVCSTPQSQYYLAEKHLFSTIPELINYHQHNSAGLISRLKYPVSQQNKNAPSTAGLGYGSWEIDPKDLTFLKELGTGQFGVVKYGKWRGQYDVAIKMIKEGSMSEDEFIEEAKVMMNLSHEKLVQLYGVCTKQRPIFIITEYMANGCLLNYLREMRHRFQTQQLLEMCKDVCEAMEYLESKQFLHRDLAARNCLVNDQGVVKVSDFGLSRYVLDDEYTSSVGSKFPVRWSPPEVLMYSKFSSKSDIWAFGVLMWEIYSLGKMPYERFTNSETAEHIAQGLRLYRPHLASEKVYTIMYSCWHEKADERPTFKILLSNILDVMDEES

For `CC(C)(O)c1ccc2c(c1)[nH]c(=O)c1ccc(-c3cccc(-n4c(=O)[nH]c5c(F)cccc5c4=O)c3F)n12`, the Activity (U-937 [1]) was “Dose-dependent-effect”, the inhibition [2] was “Active” and the AUC(0-t) at 5 h [3] was 116 ng·h/mL. For the same compound, the MRT last at 5 h [4] was 88.8 min, the inhibition in vivo at 50 mg/kg (U-937 [5]) was 64.4% and the IC50 [6] was 0.0216 µM. For the same compound, the Activity [7] was “Non-toxic”, the inhibition [8] was “Active” and the Activity [9] was “Non-toxic”. The Activity [10] was “Non-toxic”, the inhibition [11] was “Dose-dependent-effect” and the inhibition [12] was “Active”. The Activity (U-937 [13]) was “Dose-dependent-effect”, the inhibition [14] was “Dose-dependent-effect” and the Activity (U-937 [15]) was “Dose-dependent-effect”. For the same compound, the IC50 (U-937 [16]) was 7.9 µM, the Activity [17] was “Non-toxic” and the Activity [18] was “Non-toxic”. The Activity [19] was “Non-toxic”, the Tmax [20] was 30 min and the Cmax [21] was 62.4 ng/mL. For the same compound, the Activity [22] was “Non-toxic”.
